{
  "source": "patent US7090853B2",
  "about": "“Noscapine derivatives as adjuvant compositions and methods of use thereof” (Emory University, priority 1999, dated 2006)",
  "key": {"bovine brain tubulin": {"molecular_target": "bovine brain tubulin (Bos taurus, UniProt P81947+Q6B856)", "sequence (P81947 whole entry)": "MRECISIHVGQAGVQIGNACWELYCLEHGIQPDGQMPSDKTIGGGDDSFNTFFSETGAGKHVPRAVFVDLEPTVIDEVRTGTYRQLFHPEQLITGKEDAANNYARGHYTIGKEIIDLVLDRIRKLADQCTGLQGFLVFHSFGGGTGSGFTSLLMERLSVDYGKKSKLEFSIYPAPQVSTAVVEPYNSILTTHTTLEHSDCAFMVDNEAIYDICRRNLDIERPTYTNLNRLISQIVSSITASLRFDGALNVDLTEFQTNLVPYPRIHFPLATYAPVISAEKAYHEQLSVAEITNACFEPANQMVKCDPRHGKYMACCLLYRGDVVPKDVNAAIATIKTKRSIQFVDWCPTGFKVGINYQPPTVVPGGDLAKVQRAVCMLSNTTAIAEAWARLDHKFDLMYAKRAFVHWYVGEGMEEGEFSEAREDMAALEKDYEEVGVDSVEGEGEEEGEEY", "sequence (Q6B856 whole entry)": "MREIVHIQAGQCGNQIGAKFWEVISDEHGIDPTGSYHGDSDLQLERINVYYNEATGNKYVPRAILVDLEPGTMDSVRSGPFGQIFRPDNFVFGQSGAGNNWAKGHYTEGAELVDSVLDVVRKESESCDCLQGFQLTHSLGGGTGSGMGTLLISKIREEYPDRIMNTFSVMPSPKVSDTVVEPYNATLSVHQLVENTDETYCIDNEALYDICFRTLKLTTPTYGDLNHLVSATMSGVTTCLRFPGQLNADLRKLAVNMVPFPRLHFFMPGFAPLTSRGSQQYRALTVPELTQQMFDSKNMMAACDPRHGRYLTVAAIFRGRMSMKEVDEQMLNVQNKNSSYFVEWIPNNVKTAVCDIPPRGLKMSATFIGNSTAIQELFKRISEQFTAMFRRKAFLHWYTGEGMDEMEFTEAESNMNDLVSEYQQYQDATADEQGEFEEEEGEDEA", "test": "Fluorescence titration of tubulin binding (Scatchard plot)", "protocol": "Phosphocellulose purified bovine brain tubulin was employed throughout these biophysical experiments. Fluorescence titration for determining binding constants was performed according to Peyrot, V. et al., Biochemistry 31, 11125 (1992). […], at room temperature, 2 μM tubulin in 100 mM PIPES, 2 mM EGTA, 1 mM MgCl2 was excited at 278 nm, and the fluorescence emission spectra were recorded with bandwidths […]. The fluorescence emission intensity of noscapine at this excitation wavelength was negligible and at the concentration of noscapine used it gave no appreciable inner filter effect. The concentration of noscapine was raised in increments of 0.5 μM, until the decrease in the fluorescence intensity was saturated. The value of the dissociation constant and the number of sites were obtained from Scatchard plots using the equation, r/[L]free=n/K^d−r/Kd, where r is the ratio of the concentration of bound ligand to the total protein concentration and n is the number of binding sites. […] Microtubule assembly was recorded on a spectrophotometer with thermocontroler, The cuvettes (0.4 cm path) containing 100 mM PIPES, 2 mM EGTA, 1 mM MgCl2 and 1 mM GTP (G-PEM buffer), and 20 μM noscapine/DMSO were kept at room temperature before addition of tubulin and shifting to 37° C. […] The assembly was monitored by measuring the changes in turbidity at […]. intervals. […]"}, "human bladder tumors": {"system": "human bladder tumors", "conditions": "nude mice; cited from earlier work"}},
  "data": [
    {"smiles": "COc1ccc2c(c1OC)C(=O)O[C@@H]2[C@H]1c2c(cc3c(c2OC)OCO3)CCN1C", "note": "[Noscapine]", "values": [
      {"measurement": "stoichiometry", "setting": "bovine brain tubulin; Scatchard plot", "result": "0.95±0.02 noscapine molecule per complex of tubulin subunit"},
      {"measurement": "quenching of tubulin fluorescence", "setting": "bovine brain tubulin; excitation 278 nm", "result": "fluorescence quenching of tubulin"},
      {"measurement": "regression of human bladder tumors", "setting": "human bladder tumors", "result": "caused regression"}
    ]}
  ]
}
